Experimental data as given in article PMC9151729, “Experimental solubility and thermodynamic modeling of empagliflozin in supercritical carbon dioxide” (Scientific Reports, 2022).
≈ marks a conversion by molar mass, not a printed value. Where two headings read alike, the source gives them in different places. Marks after values point to notes of the source that are not given here.

Tests used:
[1] = Solubility of empagliflozin in supercritical carbon dioxide (isobaric-isothermal method, UV-Vis at 276 nm); format: physicochemical; settings: for solubility thermodynamic at 60 min: supercritical carbon dioxide (ScCO2), thermodynamic from solid, read-out: S (equilibrium solubility) in ScCO2
Protocol: The detailed discussion of the solubility apparatus and equilibrium cell has been presented in our earlier studies (Fig. 2)[19],[25],[40],[41]. However, a brief description about the apparatus is presented in this section. This method may be classified as an isobaric-isothermal method. Each measurement was carried out with high precision and temperatures and pressures were controlled within ± 0.1 K and ± 0.1 MPa, respectively. For all measurement, 1 g of empagliflozin drug was used. As mentioned in our previous works, the equilibrium was observed within 60 min. After equilibrium, 600 µL saturated ScCO2 sample was collected via 2-status 6-way port valve in a DMSO preloaded vial. After discharging 600 µL saturated ScCO2, the port valve was washed with 1 ml DMSO. Thus, the total saturation solution was 5 ml. Each measurement was repeated thrice and their average values were reported. Mole fraction is obtained as follows:1 y2=ndrug/ndrug+nCO2 where nsolute is the moles number of the drug, and nCO2 is the moles number of CO2 in the sampling loop.
Further, the above quantities are given as:2 nsolute=Cs·Vs/Ms 3 nCO2=V1·ρ/MCO2 where Cs is the drug concentration in saturated sample vial in g/L. The volume of the sampling loop and vial collection are V1(L) = 600 × 10^–6 m^3 and Vs(L) = 5 × 10^–3 m^3, respectively. The Ms and MCO2 are the molecular weight of drug and CO2, respectively. Solubility is also described as4 S=CSVs/V1
The relation between S and y2 is5 S=ρMs/MCO2y2/1-y2
A UV–Visible spectrophotometer (Model UNICO-4802) and DMSO solvent were used for the measurement of empagliflozin solubility. The samples were analyzed at 276 nm.

[2] = Total, sublimation and solvation enthalpies from Chrastil, Reformulated Chrastil and Bartle et al. model correlations of the solubility data; format: physicochemical
Excerpt: It is an empirical model and mathematically stated as:7 lny2P/Pref=A2+B2/T+C2ρ-ρref where A2-C2 are model constants. From parameter B2 , one can estimate sublimation enthalpy using the relation, ΔsubH=-B2R , in which R is universal gas constant.
It is a semi-empirical model and mathematically stated as:9 c2=ρ1κexpA4+B4/T where κ,A4andB4 are model constants.
It is a semi-empirical model and mathematically explained as:15 y2=RTρ1/MCFf^·^κ^′-1expA11+B11/T where κ^′,A10andB10 are model constants.
The density-based models considered in this work have different number of adjustable parameters. These parameters range from three to six numbers. The correlating ability of the models is depicted in Figs. 5, 6, 7, 8, 9, 10, 11. From the results, it is clear that all the models are able to correlate the data reasonably well and maximum AARD% is observed to be 10.4%. It is believed that, more parameter models are able to correlate the data more accurately. Sodefian et al., model is able to correlate the data with AARD = 5.84% and Akaike’s information criterion (AIC = − 637.59) (more relevant information is presented in the following section). Among density models, Bian et al., model (five parameters model) is able to correlate the data well and corresponding AARD% is 5.1%. […] Further, Chrastil and Reformulated Chrastil models are able to provide the total enthalpy. Whereas, Bartle et al., model parameters are able to provide sublimation enthalpy of the empagliflozin drug. From the magnitude difference between the total and sublimation enthalpies, a solvation enthalpy is calculated.

[3] = 308 K, 12 MPa, ScCO2 density 769 kg/m^3
[4] = 308 K, 15 MPa, ScCO2 density 817 kg/m^3
[5] = 308 K, 18 MPa, ScCO2 density 849 kg/m^3
[6] = 308 K, 21 MPa, ScCO2 density 875 kg/m^3
[7] = 308 K, 24 MPa, ScCO2 density 896 kg/m^3
[8] = 308 K, 27 MPa, ScCO2 density 914 kg/m^3
[9] = 318 K, 12 MPa, ScCO2 density 661 kg/m^3
[10] = 318 K, 15 MPa, ScCO2 density 744 kg/m^3
[11] = 318 K, 18 MPa, ScCO2 density 791 kg/m^3
[12] = 318 K, 21 MPa, ScCO2 density 824 kg/m^3
[13] = 318 K, 24 MPa, ScCO2 density 851 kg/m^3
[14] = 318 K, 27 MPa, ScCO2 density 872 kg/m^3
[15] = 328 K, 12 MPa, ScCO2 density 509 kg/m^3
[16] = 328 K, 15 MPa, ScCO2 density 656 kg/m^3
[17] = 328 K, 18 MPa, ScCO2 density 725 kg/m^3
[18] = 328 K, 21 MPa, ScCO2 density 769 kg/m^3
[19] = 328 K, 24 MPa, ScCO2 density 802 kg/m^3
[20] = 328 K, 27 MPa, ScCO2 density 829 kg/m^3
[21] = 338 K, 12 MPa, ScCO2 density 388 kg/m^3
[22] = 338 K, 15 MPa, ScCO2 density 557 kg/m^3
[23] = 338 K, 18 MPa, ScCO2 density 652 kg/m^3
[24] = 338 K, 21 MPa, ScCO2 density 710 kg/m^3
[25] = 338 K, 24 MPa, ScCO2 density 751 kg/m^3
[26] = 338 K, 27 MPa, ScCO2 density 783 kg/m^3

y2 solubility in ScCO2 (mole fraction) [1, 3]: 0.0814 y2 × 10^4 (mole fraction) | y2 solubility in ScCO2 (mole fraction) [1, 4]: 0.1266 y2 × 10^4 (mole fraction) | y2 solubility in ScCO2 (mole fraction) [1, 5]: 0.1327 y2 × 10^4 (mole fraction) | y2 solubility in ScCO2 (mole fraction) [1, 6]: 0.1411 y2 × 10^4 (mole fraction) | y2 solubility in ScCO2 (mole fraction) [1, 7]: 0.1501 y2 × 10^4 (mole fraction) | y2 solubility in ScCO2 (mole fraction) [1, 8]: 0.1806 y2 × 10^4 (mole fraction) | y2 solubility in ScCO2 (mole fraction) [1, 9]: 0.0706 y2 × 10^4 (mole fraction) | y2 solubility in ScCO2 (mole fraction) [1, 10]: 0.1182 y2 × 10^4 (mole fraction) | y2 solubility in ScCO2 (mole fraction) [1, 11]: 0.1515 y2 × 10^4 (mole fraction) | y2 solubility in ScCO2 (mole fraction) [1, 12]: 0.1601 y2 × 10^4 (mole fraction) | y2 solubility in ScCO2 (mole fraction) [1, 13]: 0.2040 y2 × 10^4 (mole fraction) | y2 solubility in ScCO2 (mole fraction) [1, 14]: 0.2079 y2 × 10^4 (mole fraction) | y2 solubility in ScCO2 (mole fraction) [1, 15]: 0.0611 y2 × 10^4 (mole fraction) | y2 solubility in ScCO2 (mole fraction) [1, 16]: 0.1044 y2 × 10^4 (mole fraction) | y2 solubility in ScCO2 (mole fraction) [1, 17]: 0.1620 y2 × 10^4 (mole fraction) | y2 solubility in ScCO2 (mole fraction) [1, 18]: 0.1860 y2 × 10^4 (mole fraction) | y2 solubility in ScCO2 (mole fraction) [1, 19]: 0.2248 y2 × 10^4 (mole fraction) | y2 solubility in ScCO2 (mole fraction) [1, 20]: 0.2260 y2 × 10^4 (mole fraction) | y2 solubility in ScCO2 (mole fraction) [1, 21]: 0.0514 y2 × 10^4 (mole fraction) | y2 solubility in ScCO2 (mole fraction) [1, 22]: 0.0928 y2 × 10^4 (mole fraction) | y2 solubility in ScCO2 (mole fraction) [1, 23]: 0.2002 y2 × 10^4 (mole fraction) | y2 solubility in ScCO2 (mole fraction) [1, 24]: 0.2266 y2 × 10^4 (mole fraction) | y2 solubility in ScCO2 (mole fraction) [1, 25]: 0.2637 y2 × 10^4 (mole fraction) | y2 solubility in ScCO2 (mole fraction) [1, 26]: 0.2590 y2 × 10^4 (mole fraction) | cross over region of the solubility isotherms ([1]; ScCO2, isotherms 308 to 338 K): 16.5 MPa | solubility thermodynamic at 60 min [1, 3]: 64.3 µg/mL (≈ 143 µM) | solubility thermodynamic at 60 min [1, 4]: 106 µg/mL (≈ 235 µM) | solubility thermodynamic at 60 min [1, 5]: 116 µg/mL (≈ 256 µM) | solubility thermodynamic at 60 min [1, 6]: 126 µg/mL (≈ 281 µM) | solubility thermodynamic at 60 min [1, 7]: 138 µg/mL (≈ 306 µM) | solubility thermodynamic at 60 min [1, 8]: 169 µg/mL (≈ 375 µM) | solubility thermodynamic at 60 min [1, 9]: 47.9 µg/mL (≈ 106 µM) | solubility thermodynamic at 60 min [1, 10]: 90.1 µg/mL (≈ 200 µM) | solubility thermodynamic at 60 min [1, 11]: 123 µg/mL (≈ 272 µM) | solubility thermodynamic at 60 min [1, 12]: 135 µg/mL (≈ 300 µM) | solubility thermodynamic at 60 min [1, 13]: 181 µg/mL (≈ 402 µM) | solubility thermodynamic at 60 min [1, 14]: 186 µg/mL (≈ 412 µM) | solubility thermodynamic at 60 min [1, 15]: 31.9 µg/mL (≈ 70.7 µM) | solubility thermodynamic at 60 min [1, 16]: 70.2 µg/mL (≈ 156 µM) | solubility thermodynamic at 60 min [1, 17]: 120 µg/mL (≈ 267 µM) | solubility thermodynamic at 60 min [1, 18]: 147 µg/mL (≈ 325 µM) | solubility thermodynamic at 60 min [1, 19]: 185 µg/mL (≈ 410 µM) | solubility thermodynamic at 60 min [1, 20]: 192 µg/mL (≈ 426 µM) | solubility thermodynamic at 60 min [1, 21]: 20.4 µg/mL (≈ 45.2 µM) | solubility thermodynamic at 60 min [1, 22]: 53 µg/mL (≈ 118 µM) | solubility thermodynamic at 60 min [1, 23]: 134 µg/mL (≈ 297 µM) | solubility thermodynamic at 60 min [1, 24]: 165 µg/mL (≈ 366 µM) | solubility thermodynamic at 60 min [1, 25]: 203 µg/mL (≈ 450 µM) | solubility thermodynamic at 60 min [1, 26]: 208 µg/mL (≈ 461 µM) | Enthalpy of sublimation, ΔHsub ([2]; obtained with Bartle et al. model): ~49.653^c (approximate value) kJ/mol | Total entalpy, ΔHtotal ([2]; obtained with Chrastil model): 30.548^a kJ/mol | Total entalpy, ΔHtotal ([2]; obtained with Reformulated Chrastil model): 22.496^b kJ/mol
Compound: OC[C@H]1O[C@@H](c2ccc(Cl)c(Cc3ccc(O[C@H]4CCOC4)cc3)c2)[C@H](O)[C@@H](O)[C@@H]1O [empagliflozin]
